Patent US20200046731A1, “BI[…] STATE (17- β)-HYDROXY-4-ANDROSTEN-3-ONE ESTERS” (Lipocine Inc., priority 2014, published 2020)

Assay: Serum testosterone responder analysis after oral dosing (Table 3)
Format: in vivo, human
Description: Some of the dosage forms of compositions described herein comprising or prepared from (17-β)-3-Oxoandrost-4-en-17-yl tridecanoate were administered to human subjects as a single dose of the esters to subjects. Serial blood samples were drawn at predetermined time (e.g., t=0, 12, 24, etc.) and analyzed for testosterone concentration using a validated HPLC-MS/MS analytical method. The Cmax, Cavg t1-t2, Tmax and AUCt1-t2 are calculated for testosterone in the serum of the subjects. Pharmacokinetic and statistical analyses are performed on the data obtained from the subjects. The pharmacokinetic parameters are defined as follows: • AUCt1-t2: The area under the serum concentration versus time curve, from time t1 (in hours) to time t2 (in hours) measurable concentration of the administered drug, as calculated by the linear trapezoidal method. […] This represents the average serum testosterone level over a period starting from time 0 (zero) hours to […] post-administration of dose. It should also be noted that Cavg t0-t24 is also referred to as simply “Cavg” in this invention. • Cavg t0-t12: The average serum concentration of testosterone obtained by dividing the AUCt0-t12 value by 12. This represents the average serum testosterone level over a period starting from time 0 (zero) hours to […] post-administration of dose. • Cavg t12-24: The average serum concentration of testosterone obtained by dividing the AUCt12-t24 value by 12. This represents the average serum testosterone level over the second half of the 24-hours post-administration of dose period; i.e., from a period starting from time 12 hours to time 24 hours post-administration of dose.

[1] = starting dose 100 (±50) mg T equivalent QD or BID
[2] = starting dose 300 (±50) mg T equivalent QD
[3] = starting dose 350 (±100) mg T equivalent BID
[4] = starting dose 1000 (±200) mg T equivalent QD or BID

CCCCCCCCCCCCC(=O)O[C@H]1CC[C@H]2[C@@H]3CCC4=CC(=O)CC[C@]4(C)[C@H]3CC[C@]12C [(17-β)-3-Oxoandrost-4-en-17-yl tridecanoate]
% Responders with Cave t0-t24 (ng/dL) 300-1140 [1]: 50-65%
% Responders with Cmax (ng/dL) 1800-2500 [1]: 0-5%
% Responders with Cmax (ng/dL) >2500 [1]: 0-1%
% Responders with Cmax (ng/dL) ≤1500 [1]: 100%
% Responders with Cmax (ng/dL) 1800-2500 [2]: 0-5%
% Responders with Cmax (ng/dL) >2500 [2]: 0-1%
% Responders with Cmax (ng/dL) ≤1500 [2]: 100%
% Responders with Cave t0-t24 (ng/dL) 300-1140 (starting dose 300 (±50) mg T equivalent QD, 12-20% EAPI formulation): 100%
% Responders with Cave t0-t24 (ng/dL) 300-1140 [3]: 100%
% Responders with Cmax (ng/dL) 1800-2500 [3]: 0-5%
% Responders with Cmax (ng/dL) >2500 [3]: 0-1%
% Responders with Cmax (ng/dL) ≤1500 [3]: 100%
% Responders with Cave t0-t24 (ng/dL) 300-1140 [4]: 100%
% Responders with Cmax (ng/dL) 1800-2500 [4]: 20-30%
% Responders with Cmax (ng/dL) >2500 [4]: 60-80%
% Responders with Cmax (ng/dL) ≤1500 [4]: 0%
